Measured values: patent US12486253B2, “Therapeutics for the degradation of mutant BRAF” (C4 THERAPEUTICS, INC., priority 2021, dated 2025)

Molecular target: BRAF V600E (Homo sapiens, UniProt P15056, V600E)
Assay: HiBiT cellular BRAF^V600E degradation assay
Assay type: cell-based
Details: A375.10 cells, 24 h; for DC50: concentration at which 50% of total cellular BRAF^V600E is degraded; for Emax: residual protein remaining in the cell, read-out: HiBit 24 h Emax

Sequence of BRAF V600E (P15056 whole entry V600E): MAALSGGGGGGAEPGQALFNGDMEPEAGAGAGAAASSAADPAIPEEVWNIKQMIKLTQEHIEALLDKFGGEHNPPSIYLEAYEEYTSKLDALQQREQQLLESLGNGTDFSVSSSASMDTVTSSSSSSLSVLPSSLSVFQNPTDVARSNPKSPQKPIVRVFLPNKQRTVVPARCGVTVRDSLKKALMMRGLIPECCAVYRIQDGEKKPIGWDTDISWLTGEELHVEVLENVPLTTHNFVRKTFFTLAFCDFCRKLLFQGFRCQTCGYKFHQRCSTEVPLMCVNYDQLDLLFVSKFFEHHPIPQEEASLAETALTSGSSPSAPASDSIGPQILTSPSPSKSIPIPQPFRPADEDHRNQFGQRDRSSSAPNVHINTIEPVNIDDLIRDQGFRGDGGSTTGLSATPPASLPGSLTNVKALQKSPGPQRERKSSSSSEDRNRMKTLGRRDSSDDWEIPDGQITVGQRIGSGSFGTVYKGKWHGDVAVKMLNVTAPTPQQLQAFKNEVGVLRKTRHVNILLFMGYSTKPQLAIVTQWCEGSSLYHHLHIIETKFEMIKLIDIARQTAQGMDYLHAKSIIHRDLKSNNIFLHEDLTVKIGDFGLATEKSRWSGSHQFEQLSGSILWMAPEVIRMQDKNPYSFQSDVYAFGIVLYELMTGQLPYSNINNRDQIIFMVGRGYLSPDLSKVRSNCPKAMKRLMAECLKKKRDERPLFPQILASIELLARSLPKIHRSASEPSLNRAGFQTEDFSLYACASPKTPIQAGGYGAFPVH

| Structure (SMILES) | DC50 [nM] | Emax [%] |
| --- | --- | --- |
| CN(C1CC1)S(=O)(=O)Nc1ccc(F)c(Oc2ccc3ncn(-c4cnc(N5CCN(C(=O)CN6CCC(c7ccc(N[C@H]8CCC(=O)NC8=O)cc7F)CC6)CC5)nc4)c(=O)c3c2)c1C#N [Example 127, 6-[2-cyano-3-[[cyclopropyl(methyl)sulfamoyl]amino]-6-fluorophenoxy]-3-[2-[4-[2-[4-[4-[[(3S)-2,6-dioxopiperidin-3-yl]amino]-2-fluorophenyl]piperidin-1-yl]acetyl]piperazin-1-yl]pyrimidin-5-yl]-4-oxoquinazoline] | 20.7 | 8.95 |
| N#Cc1c(NS(=O)(=O)N2C[C@@H](F)[C@H](F)C2)ccc(F)c1Oc1ccc2ncn(-c3cnc(N4CCN(C(=O)CN5CCC(c6ccc(N[C@H]7CCC(=O)NC7=O)cc6F)CC5)CC4)nc3)c(=O)c2c1 [Example 129, (3R,4R)—N-[2-cyano-3-[3-[2-[4-[2-[4-[4-[[(3S)-2,6-dioxopiperidin-3-yl]amino]-2-fluorophenyl]piperidin-1-yl]acetyl]piperazin-1-yl]pyrimidin-5-yl]-4-oxoquinazolin-6-yl]oxy-4-fluorophenyl]-3,4-difluoropyrrolidine-1-sulfonamide] | 29.6 | 10.3 |
| N#Cc1c(NS(=O)(=O)C2CCC2)ccc(F)c1Oc1ccc2ncn(-c3cnc(N4CCN(C(=O)CN5CCC(c6ccc(N[C@H]7CCC(=O)NC7=O)cc6F)CC5)CC4)nc3)c(=O)c2c1 [Example 132, N-[2-cyano-3-[3-[2-[4-[2-[4-[4-[[(3S)-2,6-dioxopiperidin-3-yl]amino]-2-fluorophenyl]piperidin-1-yl]acetyl]piperazin-1-yl]pyrimidin-5-yl]-4-oxoquinazolin-6-yl]oxy-4-fluorophenyl]cyclobutanesulfonamide] | 13.8 | 11.1 |
| N#Cc1c(NS(=O)(=O)C2CCC2)ccc(F)c1Oc1ccc2ncn(-c3cnc(N4CCN(C(=O)CN5CCC(c6ccc(N[C@@H]7CCC(=O)NC7=O)cc6F)CC5)CC4)nc3)c(=O)c2c1 [Example 133, N-[2-cyano-3-[3-[2-[4-[2-[4-[4-[[(3R)-2,6-dioxopiperidin-3-yl]amino]-2-fluorophenyl]piperidin-1-yl]acetyl]piperazin-1-yl]pyrimidin-5-yl]-4-oxoquinazolin-6-yl]oxy-4-fluorophenyl]cyclobutanesulfonamide] | 27.2 | 8.2 |
| O=C1CC[C@H](Nc2ccc(C3CCN(CC(=O)N4CCN(c5ncc(-n6cnc7ccc(Oc8c(F)ccc(NS(=O)(=O)C9CCCC9)c8F)cc7c6=O)cn5)CC4)CC3)c(F)c2)C(=O)N1 [Example 138, N-[3-[3-[2-[4-[2-[4-[4-[[(3S)-2,6-dioxopiperidin-3-yl]amino]-2-fluorophenyl]piperidin-1-yl]acetyl]piperazin-1-yl]pyrimidin-5-yl]-4-oxoquinazolin-6-yl]oxy-2,4-difluorophenyl]cyclopentanesulfonamide] | 17.2 | 10.7 |
| CCN(C)S(=O)(=O)Nc1ccc(F)c(C(=O)c2ccc3ncn(-c4cnc(N5CCN(C(=O)CN6CCC(c7ccc(N[C@@H]8CCC(=O)NC8=O)cc7F)CC6)CC5)nc4)c(=O)c3c2)c1F [Example 141, 3-[2-[4-[2-[4-[4-[[(3R)-2,6-dioxopiperidin-3-yl]amino]-2-fluorophenyl]piperidin-1-yl]acetyl]piperazin-1-yl]pyrimidin-5-yl]-6-[3-[[ethyl(methyl)sulfamoyl]amino]-2,6-difluorobenzoyl]-4-oxoquinazoline] | 55 | 26.3 |
| CCN(C)S(=O)(=O)Nc1ccc(F)c(Oc2ccc3ncn(CCC4CCN(C(=O)CN5CCC(c6ccc7c(C8CCC(=O)NC8=O)nn(C)c7c6)CC5)CC4)c(=O)c3c2)c1C#N (stereo not drawn) [Example 144, 6-[2-cyano-3-[[ethyl(methyl)sulfamoyl]amino]-6-fluorophenoxy]-3-[2-[1-[2-[4-[3-(2,6-dioxopiperidin-3-yl)-1-methylindazol-6-yl]piperidin-1-yl]acetyl]piperidin-4-yl]ethyl]-4-oxoquinazoline] | 28.4 | 16.7 |
| CCN(C)S(=O)(=O)Nc1ccc(F)c(Oc2ccc3ncn(CCCC4CCN(C(=O)CN5CCC(c6ccc7c(C8CCC(=O)NC8=O)nn(C)c7c6)CC5)CC4)c(=O)c3c2)c1C#N (stereo not drawn) [Example 145, 6-[2-cyano-3-[[ethyl(methyl)sulfamoyl]amino]-6-fluorophenoxy]-3-[3-[1-[2-[4-[3-(2,6-dioxopiperidin-3-yl)-1-methylindazol-6-yl]piperidin-1-yl]acetyl]piperidin-4-yl]propyl]-4-oxoquinazoline] | 10.6 | 15 |
| CCN(C)S(=O)(=O)Nc1ccc(F)c(Oc2ccc3ncn(-c4cnn(C5CCN(C(=O)CN6CCC(c7ccc8c(C9CCC(=O)NC9=O)nn(C)c8c7)CC6)CC5)c4)c(=O)c3c2)c1C#N (stereo not drawn) [Example 146, 6-[2-cyano-3-[[ethyl(methyl)sulfamoyl]amino]-6-fluorophenoxy]-3-[1-[1-[2-[4-[3-(2,6-dioxopiperidin-3-yl)-1-methylindazol-6-yl]piperidin-1-yl]acetyl]piperidin-4-yl]pyrazol-4-yl]-4-oxoquinazoline] | 22.2 | 16 |
| CCN(C)S(=O)(=O)Nc1ccc(F)c(Oc2ccc3ncn(C4CC5(CCN(C(=O)CN6CCC(c7ccc8c(N9CCC(=O)NC9=O)nn(C)c8c7)CC6)CC5)C4)c(=O)c3c2)c1C#N [Example 147, 6-[2-cyano-3-[[ethyl(methyl)sulfamoyl]amino]-6-fluorophenoxy]-3-[7-[2-[4-[3-(2,4-dioxo-1,3-diazinan-1-yl)-1-methylindazol-6-yl]piperidin-1-yl]acetyl]-7-azaspiro[3.5]nonan-2-yl]-4-oxoquinazoline] | 26.9 | 9.49 |

The remaining molecules from weak to strong by DC50, led by results:

| DC50 [nM] | Emax [%] | Structure (SMILES) |
| --- | --- | --- |
| 41.2 | 13.2 | CCN(C)S(=O)(=O)Nc1ccc(F)c(Oc2ccc3ncn(-c4cnc(N5CCN(C(=O)CN6CCC(c7ccc(N[C@@H]8CCC(=O)NC8=O)cc7F)CC6)CC5)nc4)c(=O)c3c2)c1F [Example 139, 3-[2-[4-[2-[4-[4-[[(3R)-2,6-dioxopiperidin-3-yl]amino]-2-fluorophenyl]piperidin-1-yl]acetyl]piperazin-1-yl]pyrimidin-5-yl]-6-[3-[[ethyl(methyl)sulfamoyl]amino]-2,6-difluorophenoxy]-4-oxoquinazoline] |
| 34.2 | 25.1 | CCN(C)S(=O)(=O)Nc1ccc(F)c(Oc2ccc3ncn(-c4cnc(N5CCN(C(=O)CN6CCC(c7ccc(N[C@@H]8CCC(=O)NC8=O)cc7F)CC6)CC5)nc4)c(=O)c3c2O)c1C#N [Example 137, 6-[2-cyano-3-[[ethyl(methyl)sulfamoyl]amino]-6-fluorophenoxy]-3-[2-[4-[2-[4-[4-[[(3R)-2,6-dioxopiperidin-3-yl]amino]-2-fluorophenyl]piperidin-1-yl]acetyl]piperazin-1-yl]pyrimidin-5-yl]-5-hydroxy-4-oxoquinazoline] |
| 31.4 | 13.7 | CCN(C)S(=O)(=O)Nc1ccc(F)c(Oc2ccc3ncn(-c4cnc(N5CCN(C(=O)CN6CCC(c7ccc(N[C@@H]8CCC(=O)NC8=O)cc7F)CC6)CC5)nc4)c(=O)c3c2COC)c1C#N [Example 135, 6-[2-cyano-3-[[ethyl(methyl)sulfamoyl]amino]-6-fluorophenoxy]-3-[2-[4-[2-[4-[4-[[(3R)-2,6-dioxopiperidin-3-yl]amino]-2-fluorophenyl]piperidin-1-yl]acetyl]piperazin-1-yl]pyrimidin-5-yl]-5-(methoxymethyl)-4-oxoquinazoline] |
| 27.8 | 12.3 | CCN(C)S(=O)(=O)Nc1ccc(F)c(Oc2ccc3ncn(-c4cnc(N5CCN(C(=O)CN6CCC(c7ccc(N[C@H]8CCC(=O)NC8=O)cc7F)CC6)CC5)nc4)c(=O)c3c2)c1F [Example 140, 3-[2-[4-[2-[4-[4-[[(3S)-2,6-dioxopiperidin-3-yl]amino]-2-fluorophenyl]piperidin-1-yl]acetyl]piperazin-1-yl]pyrimidin-5-yl]-6-[3-[[ethyl(methyl)sulfamoyl]amino]-2,6-difluorophenoxy]-4-oxoquinazoline] |
| 22.2 | 13.7 | CN(C1CC1)S(=O)(=O)Nc1ccc(F)c(Oc2ccc3ncn(-c4cnc(N5CCN(C(=O)CN6CCC(c7ccc(N[C@@H]8CCC(=O)NC8=O)cc7F)CC6)CC5)nc4)c(=O)c3c2)c1C#N [Example 126, 6-[2-cyano-3-[[cyclopropyl(methyl)sulfamoyl]amino]-6-fluorophenoxy]-3-[2-[4-[2-[4-[4-[[(3R)-2,6-dioxopiperidin-3-yl]amino]-2-fluorophenyl]piperidin-1-yl]acetyl]piperazin-1-yl]pyrimidin-5-yl]-4-oxoquinazoline] |
| 19.5 | 9.91 | N#Cc1c(NS(=O)(=O)N2C[C@H]3C[C@H]3C2)ccc(F)c1Oc1ccc2ncn(-c3cnc(N4CCN(C(=O)CN5CCC(c6ccc(N[C@H]7CCC(=O)NC7=O)cc6F)CC5)CC4)nc3)c(=O)c2c1 [Example 128, (1S,5R)—N-[2-cyano-3-[3-[2-[4-[2-[4-[4-[[(3S)-2,6-dioxopiperidin-3-yl]amino]-2-fluorophenyl]piperidin-1-yl]acetyl]piperazin-1-yl]pyrimidin-5-yl]-4-oxoquinazolin-6-yl]oxy-4-fluorophenyl]-3-azabicyclo[3.1.0]hexane-3-sulfonamide] |
| 16.5 | 7.25 | N#Cc1c(NS(=O)(=O)N2CCC2)ccc(F)c1Oc1ccc2ncn(-c3cnc(N4CCN(C(=O)CN5CCC(c6ccc(N[C@H]7CCC(=O)NC7=O)cc6F)CC5)CC4)nc3)c(=O)c2c1 [Example 130, N-[2-cyano-3-[3-[2-[4-[2-[4-[4-[[(3S)-2,6-dioxopiperidin-3-yl]amino]-2-fluorophenyl]piperidin-1-yl]acetyl]piperazin-1-yl]pyrimidin-5-yl]-4-oxoquinazolin-6-yl]oxy-4-fluorophenyl]azetidine-1-sulfonamide] |
| 16.3 | 16.9 | CCN(C)S(=O)(=O)Nc1ccc(F)c(Oc2ccc3ncn(-c4cnc(N5CCN(C(=O)CN6CCC(c7ccc(N[C@H]8CCC(=O)NC8=O)cc7F)CC6)CC5)nc4)c(=O)c3c2O)c1C#N [Example 136, 6-[2-cyano-3-[[ethyl(methyl)sulfamoyl]amino]-6-fluorophenoxy]-3-[2-[4-[2-[4-[4-[[(3S)-2,6-dioxopiperidin-3-yl]amino]-2-fluorophenyl]piperidin-1-yl]acetyl]piperazin-1-yl]pyrimidin-5-yl]-5-hydroxy-4-oxoquinazoline] |
